In PubChem BioAssay AID2060601 (Molecular Pharmacology Branch, DTP, NCI, 2025):

Test system: 874868-142-R-J2-PDC complex spheroids, growth % test/control
Assay: Anticancer human tumor 874868-142-R-J2-PDC patient-derived head and neck squamous carcinoma cell line growth inhibition [CLK]
Conditions: for IC50: curve of first compound; for viability, T/C: stronger effect = lower value
Summary of the method: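 Patient-derived tumor cells grown as complex spheroids with HUVEC endothelial cells and mesenchymal stem cells, treated with drug combinations. Concentrations descend in half-log steps from near clinical Cmax, or from 10 microM if Cmax unknown.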

[1] = second compound 0.0316 µM, first compound 0.0316 µM
[2] = second compound 0.0316 µM, first compound 0.1 µM
[3] = second compound 0.0316 µM, first compound 0.316 µM
[4] = second compound 0.0316 µM, first compound 1 µM
[5] = second compound 0.1 µM, first compound 0.0316 µM
[6] = second compound 0.1 µM, first compound 0.1 µM
[7] = second compound 0.1 µM, first compound 0.316 µM
[8] = second compound 0.1 µM, first compound 1 µM
[9] = second compound 0.316 µM, first compound 0.0316 µM
[10] = second compound 0.316 µM, first compound 0.1 µM
[11] = second compound 0.316 µM, first compound 0.316 µM
[12] = second compound 0.316 µM, first compound 1 µM
[13] = second compound 1 µM, first compound 0.0316 µM
[14] = second compound 1 µM, first compound 0.1 µM
[15] = second compound 1 µM, first compound 0.316 µM
[16] = second compound 1 µM, first compound 1 µM
[17] = second compound 3.16 µM, first compound 0.0316 µM
[18] = second compound 3.16 µM, first compound 0.1 µM
[19] = second compound 3.16 µM, first compound 0.316 µM
[20] = second compound 3.16 µM, first compound 1 µM
[21] = second compound 10 µM, first compound 0.0316 µM
[22] = second compound 10 µM, first compound 0.1 µM
[23] = second compound 10 µM, first compound 0.316 µM
[24] = second compound 10 µM, first compound 1 µM
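Further: spheroids exposed to the compounds for 7 days.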
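Wherever viability, T/C is given: 100% = DMSO vehicle control viability.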

With `CCN1CCN(Cc2ccc(Nc3ncc(F)c(-c4cc(F)c5nc(C)n(C(C)C)c5c4)n3)nc2)CC1` + CNC(=O)c1ccc(Nc2nc(OC3CCCC3)c3c(-c4ccc5nc(C)oc5c4)c[nH]c3n2)c(OC)c1 the IC50 (second compound 0.0316 µM) was over 1 µM, the IC50 (second compound 0.1 µM) was over 1 µM and the IC50 (second compound 0.316 µM) was over 1 µM. For the same molecule, the IC50 (second compound 1 µM) was under 0.00316 µM, the IC50 (second compound 3.16 µM) was under 0.00316 µM and the IC50 (second compound 10 µM) was under 0.00316 µM. For the same molecule, the viability, T/C (second compound 0.0316 µM, first compound 0.00316 µM) was 96.9%, the viability, T/C (second compound 0.0316 µM, first compound 0.01 µM) was 103% and the viability, T/C [1] was 95.2%. For the same molecule, the viability, T/C [2] was 100%, the viability, T/C [3] was 121% and the viability, T/C [4] was 113%. The viability, T/C (second compound 0.1 µM, first compound 0.00316 µM) was 106%, the viability, T/C (second compound 0.1 µM, first compound 0.01 µM) was 91.8% and the viability, T/C [5] was 94.5%. The viability, T/C [6] was 81.6%, the viability, T/C [7] was 109% and the viability, T/C [8] was 113%. The viability, T/C (second compound 0.316 µM, first compound 0.00316 µM) was 59.4%, the viability, T/C (second compound 0.316 µM, first compound 0.01 µM) was 62.7% and the viability, T/C [9] was 56.2%. The viability, T/C [10] was 64.6%, the viability, T/C [11] was 84.8% and the viability, T/C [12] was 99.9%. It also gave a viability, T/C (second compound 1 µM, first compound 0.00316 µM) of 46.2%, a viability, T/C (second compound 1 µM, first compound 0.01 µM) of 44.8% and a viability, T/C [13] of 44.4%. For the same molecule, the viability, T/C [14] was 49.3%, the viability, T/C [15] was 67.9% and the viability, T/C [16] was 68.7%. It also gave a viability, T/C (second compound 3.16 µM, first compound 0.00316 µM) of 41.9%, a viability, T/C (second compound 3.16 µM, first compound 0.01 µM) of 50.8% and a viability, T/C [17] of 41.5%. It also gave a viability, T/C [18] of 38.5%, a viability, T/C [19] of 50.8% and a viability, T/C [20] of 72.5%. It also gave a viability, T/C (second compound 10 µM, first compound 0.00316 µM) of 46.2%, a viability, T/C (second compound 10 µM, first compound 0.01 µM) of 40.5% and a viability, T/C [21] of 56%. For the same molecule, the viability, T/C [22] was 45.6%, the viability, T/C [23] was 66.8% and the viability, T/C [24] was 71.2%.
`Nc1ccccc1NC(=O)c1ccc(CNC(=O)OCc2cccnc2)cc1` + CNC(=O)c1ccc(Nc2nc(OC3CCCC3)c3c(-c4ccc5nc(C)oc5c4)c[nH]c3n2)c(OC)c1 showed an IC50 (second compound 0.0316 µM) of 7.27 µM, an IC50 (second compound 0.1 µM) of 7.26 µM and an IC50 (second compound 0.316 µM) of 4.8 µM. The IC50 (second compound 1 µM) was 0.252 µM, the IC50 (second compound 3.16 µM) was 3.95 µM and the IC50 (second compound 10 µM) was 3.44 µM. The viability, T/C [1] was 107%, the viability, T/C [2] was 87.5% and the viability, T/C [3] was 110%. The viability, T/C [4] was 114%, the viability, T/C (second compound 0.0316 µM, first compound 3.16 µM) was 109% and the viability, T/C (second compound 0.0316 µM, first compound 10 µM) was 28.7%. For the same molecule, the viability, T/C [5] was 82.6%, the viability, T/C [6] was 73.7% and the viability, T/C [7] was 94.4%. The viability, T/C [8] was 109%, the viability, T/C (second compound 0.1 µM, first compound 3.16 µM) was 101% and the viability, T/C (second compound 0.1 µM, first compound 10 µM) was 33.6%. It also gave a viability, T/C [9] of 61.5%, a viability, T/C [10] of 61.4% and a viability, T/C [11] of 67.8%. It also gave a viability, T/C [12] of 79.9%, a viability, T/C (second compound 0.316 µM, first compound 3.16 µM) of 88.9% and a viability, T/C (second compound 0.316 µM, first compound 10 µM) of 11.3%. The viability, T/C [13] was 42.4%, the viability, T/C [14] was 45% and the viability, T/C [15] was 52.1%. For the same molecule, the viability, T/C [16] was 66.9%, the viability, T/C (second compound 1 µM, first compound 3.16 µM) was 76.6% and the viability, T/C (second compound 1 µM, first compound 10 µM) was 11.9%. For the same molecule, the viability, T/C [17] was 49.2%, the viability, T/C [18] was 47% and the viability, T/C [19] was 56.9%. For the same molecule, the viability, T/C [20] was 71.8%, the viability, T/C (second compound 3.16 µM, first compound 3.16 µM) was 72.1% and the viability, T/C (second compound 3.16 µM, first compound 10 µM) was 10.8%. It also gave a viability, T/C [21] of 41.8%, a viability, T/C [22] of 44% and a viability, T/C [23] of 49%. The viability, T/C [24] was 67.3%, the viability, T/C (second compound 10 µM, first compound 3.16 µM) was 69.2% and the viability, T/C (second compound 10 µM, first compound 10 µM) was 3.57%.
